Assay results reported in patent US20180363044A1, “COMPOSITIONS AND METHODS FOR IMPROVING THE THERMAL STABILITY OF NUCLEIC ACID AMPLIFICATION REAGENTS” (Roche Molecular Systems, Inc., priority 2017, published 2018).

Test: Stability study: heat stress storage, UPLC analysis of degradation
Type: physicochemical
Procedure: Samples containing either 1 mM deoxyadenosine triphosphate (dATP), or 1 mM deoxyadenosine tetraphosphate (dA4P) or 1 mM dATP+1 mM dA4P were suspended in a buffer containing 40% DMSO/0.75M KOAc were stored for 18 hours at either 65° C. The samples were then run in a UPLC column and analyzed for degradation of the starting products.

active substrate remaining (buffer, 18 h, 1 mM) | Compound | active substrate remaining (1 mM in buffer containing 40% DMSO/0.75M KOAc, stored 18 hours at 65° C., UPLC)
51% | Nc1ncnc2c1ncn2[C@H]1C[C@H](O)[C@@H](COP(=O)(O)OP(=O)(O)OP(=O)(O)O)O1 [dATP, deoxyadenosine triphosphate] | 
 | deoxyadenosine tetraphosphate [dA4P] | approximately 70%
